PubChem BioAssay AID248 (DTP/NCI, 2004)
Toxic doses and inconclusive results are not listed. Cut-off read from the data, not from the text of the source: active = T/C of 150% or more; inactive = T/C below 125%.

Test system: L1210 leukemia ip in BDF1 mice, survival T/C
Experiment: NCI In Vivo Anticancer Drug Screen. Data for tumor model L1210 Leukemia (intraperitoneal) in B6D2F1 (BDF1) mice
Settings: endpoint: mean survival time, higher = longer survival
Procedure, shortened: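 Read-out is survival time, reported as the treated-group measurement over the vehicle-control measurement.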

[1] = dose: 100.0 mg/kg/injection, schedule: Q01DX009 (ip), vehicle: Klucel (hydroxypropylcellulose) (HPC)
[2] = dose: 100.0 mg/kg/injection, schedule: Q04DX003 (ip), vehicle: Klucel (hydroxypropylcellulose) (HPC)
[3] = dose: 200.0 mg/kg/injection, schedule: Q01DX009 (ip), vehicle: Klucel (hydroxypropylcellulose) (HPC)
[4] = dose: 200.0 mg/kg/injection, schedule: Q04DX003 (ip), vehicle: Klucel (hydroxypropylcellulose) (HPC)
[5] = dose: 400.0 mg/kg/injection, schedule: Q01DX009 (ip), vehicle: Klucel (hydroxypropylcellulose) (HPC)
[6] = dose: 400.0 mg/kg/injection, schedule: Q04DX003 (ip), vehicle: Klucel (hydroxypropylcellulose) (HPC)
[7] = dose: 15.0 mg/kg/injection, schedule: Q01DX Z (ip), vehicle: saline
[8] = dose: 15.0 mg/kg/injection, schedule: Q01DX Z (oral), vehicle: saline
[9] = dose: 30.0 mg/kg/injection, schedule: Q01DX Z (ip), vehicle: saline
[10] = dose: 60.0 mg/kg/injection, schedule: Q01DX Z (oral), vehicle: saline
[11] = dose: 100.0 mg/kg/injection, schedule: Q04DX003 (ip), vehicle: saline with Tween-80

Measured: T/C

CCN(C(=O)/C=C/c1ccccc1)C1CCCCC1
inactive: [1] 94 % of control | [2] 102 % of control | [3] 102 % of control | [4] 96 % of control | [5] 86 % of control | [6] 105 % of control

CCN(CC)c1cc(C)c2cc(Cc3ccccc3)ccc2n1
inactive: dose: 100.0 mg/kg/injection, schedule: Q01DX001 (ip), vehicle: carboxymethylcellulose (CMC) 98 % of control | dose: 200.0 mg/kg/injection, schedule: Q01DX001 (ip), vehicle: carboxymethylcellulose (CMC) 96 % of control | dose: 400.0 mg/kg/injection, schedule: Q01DX001 (ip), vehicle: carboxymethylcellulose (CMC) 101 % of control

C/C(CCCC(C)(C)C(=O)O)=N/Nc1ccc([N+](=O)[O-])cc1[N+](=O)[O-]
inactive: dose: 75.0 mg/kg/injection, schedule: Q01DX001 (ip), vehicle: other 93 % of control

O=C(N/N=C/c1ccccc1)NNCc1ccccc1
inactive: dose: 100.0 mg/kg/injection, schedule: Q01DX001 (ip), vehicle: other 97 % of control | dose: 100.0 mg/kg/injection, schedule: Q04DX003 (ip), vehicle: other 111 % of control | dose: 200.0 mg/kg/injection, schedule: Q01DX001 (ip), vehicle: other 97 % of control | dose: 200.0 mg/kg/injection, schedule: Q04DX003 (ip), vehicle: other 101 % of control | dose: 400.0 mg/kg/injection, schedule: Q01DX001 (ip), vehicle: other 104 % of control | dose: 400.0 mg/kg/injection, schedule: Q04DX003 (ip), vehicle: other 86 % of control

CC(C)(C)C1=C[P+](c2ccccc2)(c2ccccc2)C(C(C)(C)C)=C[P+]1(c1ccccc1)c1ccccc1
inactive: dose: 12.5 mg/kg/injection, schedule: Q01DX009 (ip), vehicle: saline 94 % of control | dose: 12.5 mg/kg/injection, schedule: Q04DX003 (ip), vehicle: saline 96 % of control | dose: 25.0 mg/kg/injection, schedule: Q01DX009 (ip), vehicle: saline 104 % of control | dose: 25.0 mg/kg/injection, schedule: Q04DX003 (ip), vehicle: saline 122 % of control | dose: 50.0 mg/kg/injection, schedule: Q01DX009 (ip), vehicle: saline 100 % of control | dose: 50.0 mg/kg/injection, schedule: Q04DX003 (ip), vehicle: saline 108 % of control

O=C(Nc1ccccc1F)Nc1cc(Cl)ccc1Cl
inactive: dose: 100.0 mg/kg/injection, schedule: Q01DX009 (ip), vehicle: saline sonified 91 % of control | [2] 89 % of control | dose: 200.0 mg/kg/injection, schedule: Q01DX009 (ip), vehicle: saline sonified 93 % of control | [4] 94 % of control | dose: 400.0 mg/kg/injection, schedule: Q01DX009 (ip), vehicle: saline sonified 93 % of control | [6] 86 % of control

NC(N)=N/N=C\c1ccc(OCc2ccccc2)cc1
inactive: [7] 96 % of control | [8] 91 % of control | [9] 102 % of control | dose: 30.0 mg/kg/injection, schedule: Q01DX Z (oral), vehicle: saline 94 % of control | [10] 90 % of control | dose: 120.0 mg/kg/injection, schedule: Q01DX010 (oral), vehicle: saline 102 % of control | dose: 120.0 mg/kg/injection, schedule: Q01DX Z (oral), vehicle: saline 89 % of control | dose: 240.0 mg/kg/injection, schedule: Q01DX010 (oral), vehicle: saline 102 % of control | dose: 400.0 mg/kg/injection, schedule: Q01DX010 (oral), vehicle: saline 91 % of control

COc1cc2cc(C(=O)O)sc2cc1OC
inactive: dose: 100.0 mg/kg/injection, schedule: Q01DX001 (ip), vehicle: saline 91 % of control | dose: 200.0 mg/kg/injection, schedule: Q01DX001 (ip), vehicle: saline 91 % of control | dose: 400.0 mg/kg/injection, schedule: Q01DX001 (ip), vehicle: saline 91 % of control

CCCCCCCCCCSCCSCCSCCCCCCCCCC
inactive: [2] 94 % of control

COc1cc(C(=O)Nc2ccc(NC3=NCCN3)cc2)cc(C(=O)Nc2ccc(NC3=NCCN3)cc2)c1
inactive: dose: 1.9 mg/kg/injection, schedule: Q01DX Z (ip), vehicle: methylcellulose (MC) 104 % of control | dose: 3.8 mg/kg/injection, schedule: Q01DX Z (ip), vehicle: methylcellulose (MC) 99 % of control | dose: 7.5 mg/kg/injection, schedule: Q01DX Z (ip), vehicle: methylcellulose (MC) 113 % of control | dose: 15.0 mg/kg/injection, schedule: Q01DX Z (ip), vehicle: methylcellulose (MC) 118 % of control

O=C(NC(=S)Nc1cccc(Cl)c1)c1ccccc1
inactive: [1] 106 % of control | [2] 95 % of control | [3] 113 % of control | [4] 92 % of control | [6] 95 % of control

C=CC(COC(C)=O)N1CC1 (stereo unspecified)
inactive: dose: 1.0 mg/kg/injection, schedule: Q01DX Z (ip), vehicle: carboxymethylcellulose (CMC) 100 % of control | dose: 2.0 mg/kg/injection, schedule: Q01DX Z (ip), vehicle: carboxymethylcellulose (CMC) 92 % of control | dose: 4.0 mg/kg/injection, schedule: Q01DX Z (ip), vehicle: carboxymethylcellulose (CMC) 104 % of control | dose: 5.0 mg/kg/injection, schedule: Q01DX Z (oral), vehicle: saline 101 % of control | dose: 7.5 mg/kg/injection, schedule: Q01DX Z (ip), vehicle: saline 104 % of control | dose: 7.5 mg/kg/injection, schedule: Q01DX Z (oral), vehicle: saline 104 % of control | dose: 8.0 mg/kg/injection, schedule: Q01DX Z (ip), vehicle: carboxymethylcellulose (CMC) 101 % of control | dose: 10.0 mg/kg/injection, schedule: Q01DX Z (oral), vehicle: saline 104 % of control | dose: 12.0 mg/kg/injection, schedule: Q01DX Z (ip), vehicle: carboxymethylcellulose (CMC) 110 % of control | [7] 121 % of control | [8] 105 % of control | dose: 20.0 mg/kg/injection, schedule: Q01DX Z (oral), vehicle: saline 114 % of control | dose: 25.0 mg/kg/injection, schedule: Q01DX Z (ip), vehicle: carboxymethylcellulose (CMC) 96 % of control | [9] 97 % of control | dose: 40.0 mg/kg/injection, schedule: Q01DX Z (oral), vehicle: saline 116 % of control | [10] 100 % of control

c1cc[c]([GeH]([c]2ccccc2)[c]2ccccc2)cc1
inactive: dose: 64.0 mg/kg/injection, schedule: Q04DX002 (ip), vehicle: saline with Tween-80 91 % of control | dose: 160.0 mg/kg/injection, schedule: Q04DX002 (ip), vehicle: saline with Tween-80 94 % of control | dose: 400.0 mg/kg/injection, schedule: Q04DX002 (ip), vehicle: saline with Tween-80 97 % of control

CCCCNC(=O)NC(C(=O)OCC)C(=O)OCC
inactive: [1] 97 % of control | [2] 100 % of control | [3] 102 % of control | [4] 100 % of control | [5] 96 % of control | [6] 102 % of control

Cc1ccc(Sc2cccc3c2C(=O)c2c(Sc4ccc(C)cc4)cccc2C3=O)cc1
inactive: [11] 86 % of control | dose: 200.0 mg/kg/injection, schedule: Q04DX003 (ip), vehicle: saline with Tween-80 91 % of control | dose: 400.0 mg/kg/injection, schedule: Q04DX003 (ip), vehicle: saline with Tween-80 88 % of control

Cc1ccc(NC(=O)Nc2ccccc2C)c(C)c1
inactive: [1] 93 % of control | [2] 103 % of control | [3] 90 % of control | [4] 91 % of control | [6] 96 % of control

CN(C)CCCN=Cc1ccc(O)cc1O.CN(C)CCCN=Cc1ccc(O)cc1O.[Ni+2]
inactive: dose: 25.0 mg/kg/injection, schedule: Q04DX003 (ip), vehicle: saline with Tween-80 91 % of control | dose: 50.0 mg/kg/injection, schedule: Q04DX003 (ip), vehicle: saline with Tween-80 91 % of control | [11] 89 % of control
